Assay results from PMC8226262, “Licarin-B Exhibits Activity Against the Toxoplasma gondii RH Strain by Damaging Mitochondria and Activating Autophagy” (Frontiers in Cell and Developmental Biology, 2021).
Values after ≈ are worked out from the molar mass of the structure shown.

Legend:
T. gondii tachyzoites [1] = test: In vivo parasite burden in tissues and blood (qPCR); set-up: species or system BALB/c mice; conditions: 50 mg/kg⋅bw, acutely infected mice
Experimental: To evaluate the therapeutic effect of licarin-B on acute infection, mice were infected intraperitoneally with 1 × 10^4 tachyzoites and then divided into three groups (six mice/group) for treatment with PBS (as a parasite control), licarin-B (50 mg/kg⋅bw), or a positive control drug, as described above ([Zhang J.L. et al., 2019]). The treatments were administered for 4 consecutive days, and then, the number of parasites in the tissue and blood samples were deduced from standard curves constructed using known numbers of tachyzoites, as previously described.

[2] = system: T. gondii tachyzoite intracellular proliferation in HFFs; test: Anti-proliferation activity of licarin-B (qPCR); type: cell-based, Toxoplasma gondii; conditions: 24 h
Experimental: DMEM without drugs was used as a parasite control. […] After 24 h, the cells were washed twice with PBS, and total genomic DNA from the cells was obtained as described in a previous study ([Zhang J.L. et al., 2019]). […] The results represent the means ± standard deviations (SD) from at least three independent experiments. The EC50 of licarin-B for tachyzoite growth inhibition was plotted as a function of the compound concentration via non-linear curve analysis using SPSS 19.0 software (SPSS Inc., Chicago, IL, United States). The results of the anti-invasion and anti-proliferation tests, the in vivo assays of the survival rate and parasite burden and data comparisons between the parasite control and treatment groups were statistically analyzed by one-way analysis of variance (ANOVA) using SPSS software.

T. gondii tachyzoites [3] = test: Monodansylcadaverine (MDC) staining of autophagosomes; type: cell-based, Toxoplasma gondii
Experimental: For each sample, approximately 1 × 10^5 tachyzoites were treated with licarin-B (18 μg/mL) in DMEM for 4, 8, or 16 h at 37°C; licarin-B (18, 27, or 36 μg/mL) in DMEM for 8 h at 37°C; or no drug (as a control) in DMEM. Then, the samples were washed with PBS (pH 7.4), suspended in monodansylcadaverine (MDC) working solution (100 μM) at 37°C for 1 h after centrifugation, and washed twice with PBS. The tachyzoites were resuspended in 500 μL of PBS, and the fluorescence in each group was visualized by laser scanning confocal microscopy.

[4] = Dose safety assessment in vivo; conditions: mice treated with the tested doses (25 or 50 mg/kg⋅bw) for 30 days
Experimental: Dose safety assessment in vivo was performed to determine safe doses of licarin-B, as previously described.

T. gondii tachyzoites [5] = test: In vivo survival of acutely infected mice; set-up: species or system BALB/c mice; conditions: 30-day test period
Experimental: The therapeutic effect on acute infection was evaluated as described by Zhang; female BALB/c mice were divided into four groups consisting of 10 mice each, and each mouse was injected with 2 × 10^3 tachyzoites by intraperitoneal injection. Then, the mice were treated with licarin-B (25 or 50 mg/kg⋅bw), the positive drugs (100 mg/kg⋅bw sulfadiazine, 50 mg/kg⋅bw pyrimethamine, or 15 mg/kg⋅bw folinic acid) or PBS (as control) ([Si et al., 2018]). Positive drugs were administered by oral administration, and licarin-B was administered by intraperitoneal injection. […] The survival times of the infected mice and the number of deaths were monitored and recorded twice daily for 30 days.

[6] = system: extracellular T. gondii tachyzoites; test: Flow cytometry analysis of T. gondii survival (annexin V-PE / 7-AAD); type: cell-based, Toxoplasma gondii; conditions: 24 h
Experimental: Approximately 1 × 10^6 extracellular tachyzoites were incubated with licarin-B (18 or 36 μg/mL) in DMEM or with no drug as a control for 24 h, followed by centrifugation at 1,500 × g for 10 min. The samples were washed with PBS and suspended in 100 μL of binding buffer with 5 μL of annexin V-PE and 5 μL of 7-AAD dye in the dark for 20 min at 37°C. Double mixtures were acquired and analyzed by flow cytometry (BD FACSVerse, United States) ([Giovati et al., 2018]). The experiment was repeated three times.

[7] = system: T. gondii tachyzoites in HFFs; test: Transmission electron microscopy of tachyzoites; type: cell-based, Toxoplasma gondii; conditions: 18 μg/mL
Experimental: For transmission electron microscopy (TEM) analysis, HFFs were seeded to confluence in T25 flasks and infected with 1.5 × 10^6 T. gondii tachyzoites for 8 h. After the addition of 18 μg/mL licarin-B, the cells were cultured for 4, 8, or 16 h, digested with TrypLE Express for 2 min, washed twice with PBS, fixed with 2.5% glutaraldehyde at 4°C for 12 h, washed with PBS to remove glutaraldehyde and post-fixed with 1% osmium acid solution for 1.5 h in the dark. The samples were then washed with PBS, dehydrated in a graded alcohol series, dehydrated in acetone and embedded in Epon. Ultrathin sections were stained with uranyl acetate and lead citrate and observed under a transmission electron microscope (Tecnai Spirit Bio-TWIN, Thermo Fisher Scientific, FEI, United States).

[8] = system: T. gondii tachyzoites (strain RH) in HFFs; test: In vitro screening of anti-T. gondii activity (Giemsa staining, qPCR); type: cell-based, Toxoplasma gondii; conditions: 24 h
Experimental: Human foreskin fibroblasts were seeded in 6-well plates and infected with 3 × 10^4 fresh T. gondii tachyzoites. After 8 h, the natural compounds in DMEM supplemented with 1% FBS were added. Sulfadiazine and pyrimethamine were included as positive drug controls. After incubation for 24 h, the cells were washed twice with PBS, stained with Giemsa, and observed by light microscopy. In addition, total DNA was isolated from the cells using DNAiso Reagent (Takara), and a 529-bp repeat element was amplified by quantitative polymerase chain reaction (qPCR) with the following primers: Tox-F (5′-AGGAGAGATATCAGGACTGTAG-3′), Tox-R (5′-GCGTCGTCTCGTCTAGATCG-3′), and the Taqman probe Tox-TP (6-Fam CCGGCTTGGCTGCTTTTCCT BHQ1), as described in a previous study ([Zhang J.L. et al., 2019]). The inhibition rates against T. gondii proliferation for the natural compounds at concentrations with no HFF toxicity were calculated, and the inhibition rate in each treatment group was presented as the % of the control group. The experiment was repeated three times.

[9] = system: extracellular T. gondii tachyzoites; test: DAPI staining of the nucleus; type: cell-based, Toxoplasma gondii; conditions: 18, 27, or 36 μg/mL for 16 h
Experimental: Extracellular parasites (1 × 10^5 per group) were incubated in DMEM with licarin-B (18, 27, or 36 μg/mL) or without any drug (as a control) for 16 h at 37°C. All the samples were stained with 4′,6-diamidino-2-phenylindole (DAPI) at 37°C for 10 min, and fluorescence intensity was observed by laser confocal microscopy.

[10] = system: extracellular T. gondii tachyzoites; test: MitoTracker Red CMXRos staining (mitochondrial membrane potential); type: cell-based, Toxoplasma gondii
Experimental: Extracellular parasites (1 × 10^5 per group) were incubated in DMEM with licarin-B (18 μg/mL) for 4, 8, or 16 h at 37°C; with licarin-B (18, 27, or 36 μg/mL) for 8 h at 37°C; or without any drug (as a control). Then, all the samples were stained with the MitoTracker Red CMXRos probe (50 nM, Invitrogen, United States) for 20 min. ([Zhang J.L. et al., 2019]). The fluorescence intensity was observed by laser confocal microscopy (ZEISS LSM-800, Jena, Germany).

[11] = system: T. gondii invasion of HFFs; test: Anti-invasion assessment in vitro (qPCR); type: cell-based, Toxoplasma gondii; conditions: 4.5–22.5 μg/mL, 2 h of infection
Experimental: Human foreskin fibroblasts were seeded in 6-well plates and incubated with different concentrations of licarin-B (4.5, 9, 13.5, 18, or 22.5 μg/mL), sulfadiazine (0.4 μg/mL, as a positive control) or without drugs in DMEM supplemented with 1% FBS and then infected with 3 × 10^6 fresh parasites per well. The anti-invasion capability of licarin-B was determined by qPCR after 2 h of infection, as described in a previous study ([Zhang J.L. et al., 2019]). Triplicate independent experiments were performed.

T. gondii [12] = system: T. gondii; set-up: method as in Zhang J. et al., 2019; conditions: 50 mg/kg.bw; ref Zhang J. et al., 2019; cited from earlier work
T. gondii [13] = conditions: ref Zhang J. et al., 2019; cited from earlier work

With `C/C=C/c1cc(OC)c2c(c1)C(C)[C@@H](c1ccc3c(c1)OCO3)O2` (stereo partly drawn) [Licarin-B, 5-[(2S)-2,3-D\dihydro-7-methoxy-3β-methyl-5-[(E)-1-propenyl]benzofuran-2-yl]-1,3-benzodioxole] as the compound, how does the “Parasite loads in the blood and brain, liver, and spleen tissues vs parasite control” value (T. gondii tachyzoites [1]) read?
The value was “significantly (p < 0.01) reduced the parasite loads”.

And the “Inhibition of T. gondii tachyzoite intracellular proliferation vs control” value ([2]; 4.5–45 μg/mL)?
The value was “significantly (p < 0.01) inhibited T. gondii tachyzoite intracellular proliferation in a concentration-dependent manner”.

And the “EC50 for T. gondii tachyzoite growth inhibition” value ([2]; intracellular proliferation in HFFs)?
The value was 14.05 ± 3.96 µg/mL.

And the “MDC labelling of autophagosomes” value (T. gondii tachyzoites [3]; 18 μg/mL for 4, 8, or 16 h)?
The value was “some parasites were positive for MDC”.

And the “MDC labelling of autophagosomes” value (T. gondii tachyzoites [3]; 18, 27, and 36 μg/mL for 8 h)?
The value was “autophagy was induced in T. gondii in a concentration-dependent manner”.

And the Clinical toxicity [4]?
The Clinical toxicity was “no discernible clinical toxicity was observed”.

And the “Survival rate of infected mice” value (T. gondii tachyzoites [5]; 25 mg/kg⋅bw intraperitoneal once daily for 15 days)?
The value was 60%.

And the “Survival rate of infected mice” value (T. gondii tachyzoites [5]; 50 mg/kg⋅bw intraperitoneal once daily for 15 days)?
Its value is 90%.

What about the “T. gondii survival rate” value ([6]; 18 μg/mL) of the same compound?
Its value is “approximately 45%”.

What about the “T. gondii survival rate” value ([6]; 36 μg/mL) of the same compound?
Its value is roughly 26%.

And the “Ultrastructural changes in tachyzoites (TEM)” value (from here on “Ultrastructural changes”) ([7]; 4 h)?
Its value is “slight mitochondrial swelling and a double membrane structure”.

And the “Ultrastructural changes” value ([7]; 8 h)?
Its value is “mitochondrial swelling, cristae disruption, vacuole formation, and an autophagy-like double membrane structure in the cytoplasm”.

And the “Ultrastructural changes” value ([7]; 16 h)?
Its value is “extensive clefts around the nucleus, nuclear membrane disappearance, and progressive degeneration of the parasites”.

And the “Mean inhibition rate (% of control)” value ([8]; 200 μg/mL, T. gondii proliferation in HFFs)?
Its value is 99.76 ± 5.81%.

What about the “Parasitophorous vacuoles (PVs) in host cells” value ([8]; Giemsa staining, maximum concentration safe for HFFs (licarin-B 200 μg/mL)) of the same compound?
The value was “no parasitophorous vacuoles (PVs) in host cells”.

And the “DAPI staining of parasite nuclei” value [9]?
The value was “diffuse fluorescent signal in the parasite nuclei”.

What about the “Mitochondrial membrane potential (ΔΨm)” value ([10]; 18 μg/mL for 4, 8, or 16 h) of the same compound?
The value was “decreased the ΔΨm in T. gondii in a time-dependent manner”.

And the “Mitochondrial membrane potential (ΔΨm)” value ([10]; 18, 27, or 36 μg/mL for 8 h)?
The value was “the ΔΨm was reduced in a dose-dependent manner”.

And the “Inhibition of T. gondii invasion vs control” value [11]?
The value was “significantly (p < 0.01) inhibited T. gondii invasion”.

Which “Survival rate in mice upon acute infection” value (T. gondii [12]) does the source give for `C=CCc1cc(OC)c(O[C@@H](C)[C@H](O)c2ccc(O)c(OC)c2)c(OC)c1` [myrislignan] here?
The value was 50%.

What about the “EC50, anti-T. gondii activity” value (T. gondii [13]) of the same compound?
The value was 32.41 µg/mL (≈ 86.6 µM).
